Consider 26 compounds from patent US20250074891A1 (Anaxis Pharma Pty Ltd., priority 2021, published 2025).

What all share (conditions): Table 35
In test [1] the target is RIP1 (Homo sapiens (Human), UniProt Q13546). In words: KINOMEscan binding assay, RIP1.
Test [2] deals with MLKL (full length) (Homo sapiens (Human), UniProt Q8NB16). In words: KINOMEscan binding assay, MLKL (full length). The method, then: (§1) Kinase assays. For most assays, kinase-tagged T7 phage strains were grown in parallel in 24-well blocks in an E. coli host derived from the BL21 strain. E. coli were grown to log-phase and infected with T7 phage from a frozen stock (multiplicity of infection=0.4) and incubated with shaking at 32° C. until lysis (90-150 minutes).
(§2) The Hill Slope was set to −1.

Test [3] deals with RIP3 (Homo sapiens (Human), UniProt Q9Y572). In words: KINOMEscan binding assay, RIP3. The method, then: as §1, §2
Chain of RIP3 (Q9Y572 whole entry): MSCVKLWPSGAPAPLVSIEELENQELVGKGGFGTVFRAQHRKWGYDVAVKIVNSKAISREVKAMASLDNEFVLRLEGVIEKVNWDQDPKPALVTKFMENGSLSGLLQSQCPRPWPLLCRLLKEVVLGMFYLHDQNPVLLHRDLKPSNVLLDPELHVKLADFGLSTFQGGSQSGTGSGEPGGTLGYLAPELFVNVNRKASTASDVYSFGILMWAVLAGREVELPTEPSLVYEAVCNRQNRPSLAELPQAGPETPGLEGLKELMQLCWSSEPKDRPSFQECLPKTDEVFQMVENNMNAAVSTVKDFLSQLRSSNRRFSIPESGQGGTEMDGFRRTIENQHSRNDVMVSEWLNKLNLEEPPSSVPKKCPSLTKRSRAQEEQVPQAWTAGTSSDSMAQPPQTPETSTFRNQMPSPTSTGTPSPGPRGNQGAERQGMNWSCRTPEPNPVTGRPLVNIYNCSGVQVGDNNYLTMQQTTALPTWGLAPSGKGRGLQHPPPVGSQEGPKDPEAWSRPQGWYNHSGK

Chain of MLKL (full length) (Q8NB16 whole entry): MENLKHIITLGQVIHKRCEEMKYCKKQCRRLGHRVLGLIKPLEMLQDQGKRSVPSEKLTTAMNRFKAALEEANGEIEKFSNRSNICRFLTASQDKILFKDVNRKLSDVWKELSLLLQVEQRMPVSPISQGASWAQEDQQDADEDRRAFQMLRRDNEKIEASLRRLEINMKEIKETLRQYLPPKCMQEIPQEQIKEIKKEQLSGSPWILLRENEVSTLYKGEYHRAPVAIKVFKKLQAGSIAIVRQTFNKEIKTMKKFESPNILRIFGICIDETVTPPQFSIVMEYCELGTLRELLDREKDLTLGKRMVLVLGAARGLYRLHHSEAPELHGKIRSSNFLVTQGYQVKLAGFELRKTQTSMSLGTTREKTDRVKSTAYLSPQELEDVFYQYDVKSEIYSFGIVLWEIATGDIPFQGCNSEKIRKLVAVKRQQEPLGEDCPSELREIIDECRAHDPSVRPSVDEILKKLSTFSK
Chain of RIP1 (Q13546 whole entry): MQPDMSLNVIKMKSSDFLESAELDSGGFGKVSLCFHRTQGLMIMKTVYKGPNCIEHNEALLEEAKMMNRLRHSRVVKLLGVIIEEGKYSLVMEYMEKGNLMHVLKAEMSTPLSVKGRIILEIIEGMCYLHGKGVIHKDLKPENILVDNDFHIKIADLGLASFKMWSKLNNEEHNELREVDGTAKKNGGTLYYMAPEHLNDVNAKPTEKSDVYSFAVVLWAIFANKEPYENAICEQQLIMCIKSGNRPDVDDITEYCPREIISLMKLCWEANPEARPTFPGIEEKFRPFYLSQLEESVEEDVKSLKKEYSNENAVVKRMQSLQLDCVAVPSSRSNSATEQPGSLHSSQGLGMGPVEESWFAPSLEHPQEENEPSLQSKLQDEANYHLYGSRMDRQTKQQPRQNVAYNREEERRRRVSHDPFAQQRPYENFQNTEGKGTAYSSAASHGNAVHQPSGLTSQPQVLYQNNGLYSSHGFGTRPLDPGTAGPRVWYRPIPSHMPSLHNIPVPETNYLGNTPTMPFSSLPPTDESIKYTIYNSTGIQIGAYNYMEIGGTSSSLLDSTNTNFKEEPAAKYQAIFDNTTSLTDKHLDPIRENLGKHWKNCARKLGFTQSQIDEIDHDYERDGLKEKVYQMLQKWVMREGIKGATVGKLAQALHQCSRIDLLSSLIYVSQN

Consider `CCC(Oc1cc(-c2n[nH]c(Nc3cnccn3)c2C(N)=O)ccc1NS(=O)(=O)C(F)F)c1ccc(F)cc1` (racemic) [Compound 233, 3-[4-(difluoromethanesulfonamido)-3-[1-(4-fluorophenyl)propoxy]phenyl]-5-[(pyrazin-2-yl)amino]-1H-pyrazole-4-carboxamide], for which the Kd in test [1] was greater than 30 µM; in test [2] it was less than 0.01 µM; in test [3] it was greater than 30 µM.

As to `CC(Oc1cc(-c2n[nH]c(Nc3cnccn3)c2C(N)=O)ccc1NS(=O)(=O)C(F)F)c1ncco1` (racemic) [Compound 293, 3-(4-((difluoro-methyl)sulfon-amido)-3-(1-(oxazol-2-yl)ethoxy)phenyl)-5-(pyrazin-2-ylamino)-1H-pyrazole-4-carboxamide], the Kd is greater than 30 µM in test [1], less than 0.01 µM in test [2] and greater than 30 µM in test [3].

For `COCC(Oc1cc(-c2n[nH]c(Nc3cc(C)on3)c2C(N)=O)ccc1NS(=O)(=O)C(F)F)c1ccc(F)cc1` (racemic) [Compound 298, 3-(4-((difluoromethyl)sulfonamido)-3-(1-(4-fluorophenyl)-2-methoxyethoxy)phenyl)-5-((5-methylisoxazol-3-yl)amino)-1H-pyrazole-4-carboxamide], the Kd in test [1] was greater than 30 µM; in test [2], less than 0.01 µM; in test [3] it was greater than 30 µM.

For `CCS(=O)(=O)Nc1ccc(-c2n[nH]c(Nc3cnccn3)c2C(N)=O)cc1OCc1ccc(F)c(F)c1` [Compound 1, 3-(3-((3,4-difluorobenzyl)oxy)-4-(ethylsulfonamido)phenyl)-5-(pyrazin-2-ylamino)-1H-pyrazole-4-carboxamide], the figures for the Kd in test [1], in test [2] and in test [3] were greater than 30 µM, less than 0.01 µM and greater than 30 µM, respectively.

`CC(C)(C)n1nc(-c2ccc(N)c(OCc3ccc(F)cc3)c2)c(C(N)=O)c1Nc1cccc(C(F)(F)F)n1` [Compound 5, 3-(4-amino-3-((4-fluorobenzyl)oxy)phenyl)-1-(tert-butyl)-5-((6-(trifluoromethyl)pyridin-2-yl)amino)-1H-pyrazole-4-carboxamide]: the Kd in test [1] is greater than 30 µM; in test [2], 0.01 to 1 µM; in test [3], greater than 30 µM.

Consider `CCS(=O)(=O)Nc1ccc(-c2n[nH]c(Nc3cccc(OC)n3)c2C(N)=O)cc1OCc1ccc(F)cc1` [Compound 11, 3-(4-(ethylsulfonamido)-3-((4-fluorobenzyl)oxy)phenyl) 5-((6-methoxypyridin-2-yl)amino)-1H-pyrazole-4-carboxamide], for which the Kd in test [1] was greater than 30 µM; in test [2] it was less than 0.01 µM; in test [3], greater than 30 µM.

In the case of `CCS(=O)(=O)Nc1ccc(-c2n[nH]c(Nc3cnc(OC)cn3)c2C(N)=O)cc1OCc1ccc(F)cc1` [Compound 14, 3-(4-(ethylsulfonamido)-3-((4-fluorobenzyl)oxy)phenyl) 5-((5-methoxypyrazin-2-yl)amino)-1H-pyrazole-4-carboxamide], the Kd in test [1] was greater than 30 µM; in test [2], less than 0.01 µM; in test [3], greater than 30 µM.

For the compound `CCS(=O)(=O)Nc1ccc(-c2n[nH]c(Nc3cncc(OC)n3)c2C(N)=O)cc1OCc1ccc(F)cc1` [Compound 15, 3-(4-(ethylsulfonamido)-3-((4-fluorobenzyl)oxy)phenyl) 5-((6-methoxypyrazin-2-yl)amino)-1H-pyrazole-4-carboxamide], the values for the dissociation constant (Kd) in test [1], in test [2] and in test [3] were greater than 30 µM, less than 0.01 µM and greater than 30 µM, respectively.

In the case of `CCS(=O)(=O)Nc1ccc(-c2n[nH]c(Nc3cncc(C(F)(F)F)n3)c2C(N)=O)cc1OCc1ccc(F)cc1` [Compound 17, 3-(4-(ethylsulfonamido)-3-((4-fluorobenzyl)oxy)phenyl)5-((6-(trifluoromethyl)pyrazin-2-yl)amino)-1H-pyrazole-4-carboxamide], the dissociation constant Kd in test [1] was greater than 30 µM; in test [2], less than 0.01 µM; in test [3], greater than 30 µM.

Turning to `CCS(=O)(=O)Nc1ccc(-c2n[nH]c(Nc3ccccn3)c2C(N)=O)cc1OCc1ccccc1` [Compound 20, 3-(3-(benzyloxy)-4-(ethylsulfon-amido)phenyl)-5-(pyridin-2-ylamino)-1H-pyrazole-4-carboxamide], the Kd was greater than 30 µM in test [1], less than 0.01 µM in test [2] and greater than 30 µM in test [3].

Turning to `CCS(=O)(=O)Nc1ccc(-c2n[nH]c(Nc3cnccn3)c2C(N)=O)c(OCc2ccc(F)cc2)c1` [Compound 21, 3-(4-(ethylsulfonamido)-2-((4-fluorobenzyl)oxy)phenyl)-5-(pyrazin-2-ylamino)-1H-pyrazole-4-carboxamide], the Kd was greater than 30 µM in test [1], less than 0.01 µM in test [2] and greater than 30 µM in test [3].

`CCS(=O)(=O)Nc1ccc(-c2n[nH]c(Nc3ccccn3)c2C(N)=O)cc1OCc1cccc(Cl)c1` [Compound 38, 3-(3-((3-chlorobenzyl)oxy)-4-(ethylsulfon-amido)phenyl)-5-(pyridin-2-ylamino)-1H-pyrazole-4-carboxamide]: the dissociation constant Kd was less than 0.01 µM in test [2] and greater than 30 µM in test [3].

`CCS(=O)(=O)Nc1ccc(-c2n[nH]c(Nc3ccccn3)c2C(N)=O)cc1OCc1ccc(Cl)cc1` [Compound 39, 3-(3-((4-chlorobenzyl)oxy)-4-(ethylsulfon-amido)phenyl)-5-(pyridin-2-ylamino)-1H-pyrazole-4-carboxamide]: the results for the dissociation constant (Kd) in test [2] and in test [3] were less than 0.01 µM and greater than 30 µM, respectively.

In the case of `CCS(=O)(=O)Nc1ccc(-c2n[nH]c(Nc3ccc(C(F)(F)F)cn3)c2C(N)=O)cc1OCc1ccc(F)cc1` [Compound 207], the Kd in test [1] and in test [3] was greater than 30 µM in each case.

Consider `CCS(=O)(=O)Nc1ccc(-c2n[nH]c(Nc3cnccn3)c2C(N)=O)c(OCc2cccc(F)c2)c1` [Compound 208, 3-(4-(ethylsulfonamido)-2-((3-fluorobenzyl)oxy)phenyl)-5-(pyrazin-2-ylamino)-1H-pyrazole-4-carboxamide], for which the Kd in test [1] and in test [3] was greater than 30 µM in each case.

On to `CCS(=O)(=O)Nc1ccc(-c2n[nH]c(Nc3cnccn3)c2C(N)=O)c(OC)c1` [Compound 209, 3-(4-(ethylsulfonamido)-2-methoxyphenyl)-5-(pyrazin-2-ylamino)-1H-pyrazole-4-carboxamide], for which the dissociation constant Kd in test [1] and in test [3] was greater than 30 µM each time.

As for `CCS(=O)(=O)Nc1ccc(-c2n[nH]c(Nc3cnccn3)c2C(N)=O)cc1OCc1cccc(OC(F)(F)F)c1` [Compound 214, 3-(4-(ethylsulfonamido)-3-((3-(trifluoromethoxy)benzyl)oxy)phenyl)-5-(pyrazin-2-ylamino)-1H-pyrazole-4-carboxamide], the Kd in test [1] and in test [3] was greater than 30 µM each time.

As to `CCS(=O)(=O)Nc1ccc(-c2n[nH]c(Nc3cnccn3)c2C(N)=O)cc1OCc1ccc(OC(F)(F)F)cc1` [Compound 215, 3-(4-(ethylsulfonamido)-3-((4-(trifluoromethoxy)benzyl)oxy)phenyl)-5-(pyrazin-2-ylamino)-1H-pyrazole-4-carboxamide], the Kd in test [1] and in test [3] was greater than 30 µM throughout.

`CCS(=O)(=O)Nc1ccc(-c2n[nH]c(Nc3cnccn3)c2C(N)=O)cc1OCc1ccc(C(F)(F)F)cc1` [Compound 216, 3-(4-(ethylsulfonamido)-3-((4-(trifluoromethyl)benzyl)oxy)phenyl)-5-(pyrazin-2-ylamino)-1H-pyrazole-4-carboxamide]: the equilibrium dissociation constant (Kd) in test [1] and in test [3] was greater than 30 µM each time.

For `CCS(=O)(=O)Nc1ccc(-c2n[nH]c(Nc3cnccn3)c2C(N)=O)cc1OCc1cccc(C(F)(F)F)c1` [Compound 218, 3-(4-(ethylsulfonamido)-3-((3-(trifluoromethyl)benzyl)oxy)phenyl)-5-(pyrazin-2-ylamino)-1H-pyrazole-4-carboxamide], the dissociation constant (Kd) in test [1] and in test [3] was greater than 30 µM in each case.

As to `CCS(=O)(=O)Nc1ccc(-c2n[nH]c(Nc3ccc4cc(Cl)ccc4n3)c2C(N)=O)cc1OCc1ccc(F)cc1` [Compound 220, 5-((6-chloroquinolin-2-yl)amino)-3-(4-(ethylsulfonamido)-3-((4-fluorobenzyl)oxy)phenyl)-1H-pyrazole-4-carboxamide], the Kd in test [1] and in test [3] was greater than 30 µM each time.

On to `C[C@H](Oc1cc(NS(=O)(=O)C(F)F)ccc1-c1n[nH]c(Nc2cnccn2)c1C(N)=O)c1ccc(F)cc1` [Compound 243, 3-[4-(difluoromethanesulfonamido)-2-[(1 S)-1-(4-fluorophenyl)ethoxy]phenyl]-5-[(pyrazin-2-yl)amino]-1H-pyrazole-4-carboxamide], for which the Kd in test [1] and in test [3] was greater than 30 µM throughout.

Consider `C[C@H](Oc1cc(NS(=O)(=O)CC(F)(F)F)ccc1-c1n[nH]c(Nc2cnccn2)c1C(N)=O)c1ccc(F)cc1` [Compound 244, 3-{2-[(1S)-1-(4-fluorophenyl)ethoxy]-4-(2,2,2-trifluoroethanesulfonamido)phenyl}-5-[(pyrazin-2-yl)amino]-1H-pyrazole-4-carboxamide], for which the Kd in test [1] and in test [3] was greater than 30 µM each time.

As to `C[C@@H](Oc1cc(NS(=O)(=O)CC(F)(F)F)ccc1-c1n[nH]c(Nc2cnccn2)c1C(N)=O)c1ccc(F)cc1` [Compound 254, 3-{2-[(1R)-1-(4-fluorophenyl)ethoxy]-4-(2,2,2-trifluoroethanesulfonamido)phenyl}-5-[(pyrazin-2-yl)amino]-1H-pyrazole-4-carboxamide], the dissociation constant (Kd) in test [1] and in test [3] was greater than 30 µM throughout.

In the case of `C[C@@H](Oc1cc(NS(=O)(=O)C(F)F)ccc1-c1n[nH]c(Nc2cnccn2)c1C(N)=O)c1ccc(F)cc1` [Compound 255, 3-[4-(difluoromethanesulfonamido)-2-[(1R)-1-(4-fluorophenyl)ethoxy]phenyl]-5-[(pyrazin-2-yl)amino]-1H-pyrazole-4-carboxamide], the Kd in test [1] and in test [3] was greater than 30 µM each time.

On to `C[C@H](Oc1cc(-c2n[nH]c(Nc3cc(C45CC6CC(CC(C6)C4)C5)on3)c2C(N)=O)ccc1NS(=O)(=O)C(F)F)c1ccc(F)cc1` [Compound 304], for which the dissociation constant Kd in test [1] and in test [3] was greater than 30 µM each time.
